According to ChEMBL document CHEMBL1133406, “Potent antagonists of gonadotropin releasing hormone receptors derived from quinolone-6-carboxamides” (Bioorg Med Chem Lett, 2000):

Assays:
[1] = biological target: T1, Gonadotropin-releasing hormone receptor (Homo sapiens, UniProt P30968); experiment: In vitro inhibitory activity against […] CHO cells stably expressing human gonadotropin-releasing hormone receptor; type: cell-based
T1 sequence (P30968 whole entry): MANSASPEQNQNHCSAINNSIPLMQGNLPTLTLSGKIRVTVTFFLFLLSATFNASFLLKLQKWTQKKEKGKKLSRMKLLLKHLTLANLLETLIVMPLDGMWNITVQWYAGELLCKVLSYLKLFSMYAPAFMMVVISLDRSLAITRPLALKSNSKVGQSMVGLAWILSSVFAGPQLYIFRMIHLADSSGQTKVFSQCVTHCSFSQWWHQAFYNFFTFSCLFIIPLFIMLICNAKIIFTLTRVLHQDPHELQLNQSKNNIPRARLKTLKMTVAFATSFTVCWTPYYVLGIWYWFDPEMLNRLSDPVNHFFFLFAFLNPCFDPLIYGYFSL

[2] = biological target: T1, Gonadotropin-releasing hormone receptor; experiment: In vitro inhibition of GnRH-stimulated phosphatidyl inositol hydrolysis in CHO cells stably expressing gonadotropin-releasing hormone receptor.; type: functional, cell-based
[3] = biological target: T2, Gonadotropin-releasing hormone receptor (Rattus norvegicus, UniProt P30969); experiment: In vitro inhibition of GnRH stimulated release of luteinizing hormone from the rat primary pituitary cells.; type: functional, cell-based, Pituitary gland cell
T2 sequence (P30969 whole entry): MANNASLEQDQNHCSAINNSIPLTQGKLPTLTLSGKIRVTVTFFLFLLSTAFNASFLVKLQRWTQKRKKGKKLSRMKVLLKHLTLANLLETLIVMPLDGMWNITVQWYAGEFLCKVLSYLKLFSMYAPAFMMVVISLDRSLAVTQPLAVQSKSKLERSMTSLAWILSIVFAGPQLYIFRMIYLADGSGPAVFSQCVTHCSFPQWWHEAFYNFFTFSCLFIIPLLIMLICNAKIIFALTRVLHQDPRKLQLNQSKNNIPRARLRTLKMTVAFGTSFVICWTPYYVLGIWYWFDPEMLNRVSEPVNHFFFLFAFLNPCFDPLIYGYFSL

Row | IC50 [1] [nM] | IC50 [2] [nM] | IC50 [3] [nM] | Compound
1 | 7 | 16 | 2200 | Cc1cc(C)cc(-c2c(O)nc3cc(Cl)c(C(=O)Nc4cnccn4)cc3c2OCCC2CCCCN2)c1 (stereo unspecified)
2 | 1.4 | 14.5 | 79.2 | Cc1cc(C)cc(-c2c(O)nc3cc(Cl)c(C(=O)Nc4cc(Cl)ncn4)cc3c2OCCC2CCCCN2)c1 (stereo unspecified)
3 | 1.8 | 33.3 | 87.2 | Cc1cc(C)cc(-c2c(O)nc3cc(Cl)c(C(=O)Nc4ccnc(C)n4)cc3c2OCCC2CCCCN2)c1 (stereo unspecified)
4 | – | – | > 1280 | CCC(C)N(C(=O)c1cc2c(OCCC3CCCCN3)c(-c3cc(C)cc(C)c3)c(O)nc2cc1Cl)C(C)CC (stereo unspecified)
5 | 3.6 | 19 | 1260 | Cc1cc(C)cc(-c2c(O)nc3cc(Cl)c(C(=O)Nc4ccccn4)cc3c2OCCC2CCCCN2)c1 (stereo unspecified)
6 | 15 | 250 | – | Cc1cc(C)cc(-c2c(O)nc3cc(Cl)c(C(=O)Nc4ccnc(C5CC5)n4)cc3c2OCCC2CCCCN2)c1 (stereo unspecified)
7 | 9 | 133 | – | COc1nccc(NC(=O)c2cc3c(OCCC4CCCCN4)c(-c4cc(C)cc(C)c4)c(O)nc3cc2Cl)n1 (stereo unspecified)
8 | 2.3 | 77.5 | 513 | Cc1cc(C)cc(-c2c(O)nc3cc(Cl)c(C(=O)Nc4cc(C)on4)cc3c2OCCC2CCCCN2)c1 (stereo unspecified)
9 | 32 | 22 | – | Cc1cc(C)cc(-c2c(O)nc3cc(Cl)c(C(=O)Nc4nncs4)cc3c2OCCC2CCCCN2)c1 (stereo unspecified)
10 | 320 | 775 | > 1280 | Cc1cc(C)cc(-c2c(O)nc3cc(Cl)c(C(=O)Nc4nc[nH]n4)cc3c2OCCC2CCCCN2)c1 (stereo unspecified)
11 | 110 | 591 | > 1280 | Cc1cc(C)cc(-c2c(O)nc3cc(Cl)c(C(=O)NCc4ccc5c(c4)OCO5)cc3c2OCCC2CCCCN2)c1 (stereo unspecified)
12 | 0.8 | 5.9 | 23.9 | Cc1cc(C)cc(-c2c(O)nc3cc(Cl)c(C(=O)Nc4cnsn4)cc3c2OCC[C@@H]2CCCCN2)c1
13 | 0.9 | 5 | 96.5 | Cc1cc(C)cc(-c2c(O)nc3cc(Cl)c(C(=O)Nc4ccncn4)cc3c2OCC[C@@H]2CCCCN2)c1
14 | 28 | – | > 1280 | Cc1cc(C)cc(-c2c(O)nc3cc(Cl)c(C(=O)Nc4nnc(C)s4)cc3c2OCCC2CCCCN2)c1 (stereo unspecified)
15 | 40 | 486 | – | Cc1cc(C)cc(-c2c(O)nc3cc(Cl)c(C(=O)Nc4cc(C)nc(C)n4)cc3c2OCCC2CCCCN2)c1 (stereo unspecified)
16 | 32 | 130 | > 1280 | Cc1cc(C)cc(-c2c(O)nc3cc(Cl)c(C(=O)Nc4cccnc4)cc3c2OCCC2CCCCN2)c1 (stereo unspecified)
17 | 2.8 | 44 | 167 | Cc1cc(C)cc(-c2c(O)nc3cc(Cl)c(C(=O)Nc4cc(C)ncn4)cc3c2OCCC2CCCCN2)c1 (stereo unspecified)
18 | 860 | 977 | – | CCn1nccc1NC(=O)c1cc2c(OCCC3CCCCN3)c(-c3cc(C)cc(C)c3)c(O)nc2cc1Cl (stereo unspecified)
19 | 2.9 | 21.5 | 521 | Cc1cc(C)cc(-c2c(O)nc3cc(Cl)c(C(=O)Nc4cc(C)ns4)cc3c2OCCC2CCCCN2)c1 (stereo unspecified)
20 | 3.2 | 8.3 | 240 | Cc1cc(C)cc(-c2c(O)nc3cc(Cl)c(C(=O)Nc4ccncn4)cc3c2OCCC2CCCCN2)c1 (stereo unspecified)
21 | 290 | > 3200 | > 1280 | Cc1cc(C)cc(-c2c(O)nc3cc(Cl)c(C(=O)Nc4ncccn4)cc3c2OCCC2CCCCN2)c1 (stereo unspecified)
22 | 2 | 6.4 | 292 | Cc1cc(C)cc(-c2c(O)nc3cc(Cl)c(C(=O)Nc4cnsn4)cc3c2OCCC2CCCCN2)c1 (stereo unspecified)
23 | 10.9 | 360 | – | Cc1cc(C)cc(-c2c(O)nc3cc(Cl)c(C(=O)Nc4ccc(N(C)C)cc4)cc3c2OCCC2CCCCN2)c1 (stereo unspecified)
24 | – | – | > 1280 | CCN(CC)C(=O)c1cc2c(OCCC3CCCCN3)c(-c3cc(C)cc(C)c3)c(O)nc2cc1Cl (stereo unspecified)
25 | 3.8 | 10.6 | 1090 | Cc1cc(C)cc(-c2c(O)nc3cc(Cl)c(C(=O)Nc4ccncc4)cc3c2OCCC2CCCCN2)c1 (stereo unspecified)
26 | 23 | – | > 1280 | Cc1cc(C)cc(-c2c(O)nc3cc(Cl)c(C(=O)Nc4cc(C)no4)cc3c2OCCC2CCCCN2)c1 (stereo unspecified)
